Entries after “also recorded” stand apart in the source; their conditions may differ. Like-named read-outs stand apart in the source and are kept apart here. Positions of bridges follow the written chain, without caps; N, C: chain ends. Non-standard residues stand in square brackets, D forms with d. Residues, ends and D or L forms follow the SMILES beside them. hArg = N=C(N)NCCCC[C@H](N)C(=O)O; Mpa = O=C(O)CCS
Legend:
[1] = test system: human platelet-rich plasma (PRP); assay: Thrombin-induced clot retraction; type: cell-based; details: for effect on clot retraction induced by α-thrombin: FIG. 5, tirofiban 1.5 μM, m-tirofiban 15 μM, α-thrombin 0.5 unit/mL; for kinetics of thrombin-induced clot retraction: FIG. 6E, three experiments, vs buffer control
Experimental: 750 μL of Tyrode's buffer supplemented with inhibitor was mixed in a glass culture tube with 200 μL of PRP and 5 μL red blood cells. Clotting was initiated by addition of 50 μL thrombin at 10 units/ml in saline and a sealed Pasteur pipette secured in the tube center. Digital photographs of the experiment were taken at 15-minute intervals over 2 hours. Images were analyzed with ImageJ software to determine the area occupied by the clot and plasma. Plots of the relative areas and linear regressions were performed with SigmaPlot (Systat Software, San Jose, Calif.).
No ligands were added to the control (FIG. 5C) tube. Photographs were taken immediately after thrombin addition (FIG. 5A) and at the end of the reaction (FIG. 5B). Clot retraction around the central glass rod placed in each glass test tube before thrombin addition is shown. 5 μL of red blood cells were added per 1 mL reaction to enhance the color contrast for photography.
Clot retraction normally helps secure hemostasis in vivo as evidenced by increased bleeding in mice with impaired clot retraction (see e.g., Leon et al, Blood 110, 3183-3191, doi: 10.1182/blood-2007-03-080184 (2007)), or in recipients of any of the three anti-αIIbβ3 drugs (see e.g., Tutwiler et al, Biophys. J. 112, 714-723 (2017); Osdoit et al, J. Biol. Chem. 276, 6703-6710 (2001); Haling et al, Blood 117, 1719-1722 (2011)). The effects of Hr10 and eptifibatide on thrombin-induced clot retraction in fresh human platelet-rich plasma (PRP) (see e.g., Tucker et al, Methods Mol. Biol. 788, 101-107 (2012)) were compared. The kinetics of clot retraction were determined from quantification of serial images of the reaction acquired every 15 minutes for the 2-hour duration of the assay. […] Thrombolysis, 15, 71-80 (2003).

[2] = biological target: T1, αIIbβ3 (Homo sapiens, UniProt P05106+P08514); assay: Displacement of labeled Hr10 binding to inactive or PT-25-activated αIIbβ3-K562 cells (FACS); design: expressed in transfected cells; host or cells: K562; details: for IC50: Alexa488-labeled Hr10, 1 mM Mg2+ and Ca2+
Experimental: […] Cells were washed, fixed in 2% paraformaldehyde and analyzed by flow cytometry. Ligand binding was expressed as […] of cells in the absence of competitor ligands. Mean and SD from three independent experiments were calculated, and compared using Student's t-test.

[3] = test system: human platelets; assay: Agonist-induced platelet aggregation in whole human blood (impedance, Chrono-Log 700); type: cell-based; details: for IC50: Homo sapiens, Platelet
Experimental: (§1) Platelet aggregation and ATP secretion in whole blood were performed in a Chrono-Log model 700 two-channel lumi-aggregation system following the manufacturer's instructions. Blood was drawn directly into 3.2% sodium citrate from healthy volunteers, and blood was used within 3 hours. None of the subjects were taking any medications for at least 10 days prior. For impedance aggregation measurements, 0.5 mL of blood was mixed with 0.5 mL physiologic saline supplemented with inhibitors and incubated at 37° C. for 5 minutes without stirring. Measurements were performed with stirring at 1,200 rpm at 37° C. Values for each data point represent impedance measurements following application of agonist integrated over 5 minutes. Data points for an individual dose curve were serially collected from a single draw and analyzed with SigmaPlot (Systat Software, San Jose, Calif.) using a least-square fit to a logistic curve and the IC50 value determined from the fitted parameter. ATP secretion proceeded similarly except that 0.45 mL of whole blood were added to 0.45 mL of saline supplemented with various concentrations of Hr10 or eptifibatide to produce the desired concentration at 1.0 mL. Following incubation for 5 minutes at 37° C., 100 μL of Chrono-lume reagent was added and aggregation initiated. The luminescence signal was quantified with a non-aggregated sample supplemented with an ATP standard.
Platelet aggregation was measured in whole blood by impedance increase with a Chrono-log model 700 according to the manufacturer's protocol. Citrated whole blood was diluted with an equal volume of physiologic saline (Sigma) and incubated for 5 min at 37° C. without stirring. Inhibitors were added to final concentration and the cuvette stirred at 1,200 rpm. Following establishment of stable baseline, ADP (20 μM) was added and tracings recorded for 6 min. The extent of aggregation was determined as the integrated impedance over 5 min.

[4] = biological target: T1, αIIbβ3; assay: Displacement of labeled fibrinogen binding to αIIbβ3-K562 cells (flow cytometry); design: expressed in transfected cells; host or cells: K562
Experimental: For ligand binding competition studies, 100 μL of PT-25-activated αIIbpβ3-K562 (1×10^6) were incubated for 30 minutes at RT with serially diluted concentrations of Hr10, hFN10, or eptifibatide in the presence of 0.5 μM Alexa647-conjugated FB. Cells were washed, fixed in 2% paraformaldehyde and analyzed by flow cytometry. Ligand binding was expressed as […] of cells in the absence of competitor ligands. Mean and SD from three independent experiments were calculated, and compared using Student's t-test.

[5] = biological target: T1, αIIbβ3; assay: Binding of conformation-sensitive mAbs AP5 / LIBS-1 to human platelets; type: cell-based; details: for induction of AP5 epitope expression: tirofiban 150 nM
[6] = test system: human platelets; assay: ADP-induced ATP secretion from dense granules in whole blood; type: cell-based; details: 1.5 μM; ADP 20 μM; FIG. 11E
Experimental: as §1

[7] = test system: human platelets; assay: ADP-induced surface expression of CD62P and CD63 on platelets; type: cell-based; details: 1.5 μM; ADP 20 μM; FIG. 11F
Experimental: αVβ3-K562 cells or transiently transfected HEK293T (0.5×10^6 in 100 μL WB) were incubated in the absence or presence of unlabeled Hr10 or eptifibatide, each at 1.5 μM, for 20 min at RT. Alexa647-labeled AP5 Fab or unlabeled anti-LIBS-1 (each to 10 μg/mL) were added, and cells incubated for an additional 30 min before washing. Alexa647-labeled AP3 was used for normalization of integrin expression. APC-labeled goat anti-mouse Fc-specific antibody was added to anti-LIBS-1-bound cells for an additional 30 min at 4° C., cells washed and processed for flow cytometry. Binding of anti-CD62 and anti-CD63 mAbs to platelets was performed by incubating (20 min, RT) 100 μL of ligand-pretreated 3.2% sodium citrate whole blood with either Alexa488-labeled mAb (at 10 μg/mL) in the presence of 10 μg/mL Alexa647-labeled anti-CD42b. Cells were fixed in 2% paraformaldehyde and CD62 and CD63 expression was analyzed by flow cytometry in the CD42b positive population.

[8] = test system: vWF^RH/RH NSG mice infused with human platelets; assay: Cremaster laser-induced arteriolar injury thrombosis in humanized mice; type: in vivo; details: eptifibatide 5 μg/mouse, Hr10 60 μg/mouse (equimolar), infused 5 min prior to injury; FIG. 13A
Experimental: Intravital microscopy was performed as previously described (see e.g., Celi et al, J. Thromb. Haemost. 1, 60-68 (2003); and Neyman et al, Blood, 112, 1101-1108 (2008)). vWF^RH/RHNSG male mice were studied after being anesthetized using sodium pentobarbital (80 mg/kg) injected intraperitoneally. Mice were maintained under anesthesia with the same anesthetic delivered via a catheterized jugular vein at 5 mg/mL throughout the experiment. The cremaster muscle was surgically exteriorized and continuously superfused with a physiological buffer (PBS containing 0.9 mM CaCl2 and 0.49 mM MgCl2) maintained at 37° C. throughout the entire experiment and equilibrated with a mixture of 95% N2 and 5% CO2. Human platelets, 400 million per mouse, were labeled with mouse anti-human CD41 F(ab′)2 (BD Biosciences) conjugated to Alexa Fluor-488 and infused into the jugular vein, followed by Alexa Fluor-647 rat anti-mouse CD41 F(ab′)2 (Thermo Fisher) to detect endogenous mouse platelets (see e.g., Fuentes et al, J. Clin. Invest. 126, 483-494 (2016)). Vascular injury was induced with an SRS NL100 pulsed nitrogen dye laser (440 nm) focused on the vessel wall through the microscope objective. […] Intensity of the fluorescent signal was used to measure incorporated platelets (see e.g., Neyman et al, Blood 112, 1101-1108 (2008). Eight injuries were made in each of four mice in each group.

[9] = biological target: T2, αIIbβ3 on resting platelets (Homo sapiens, UniProt P05106+P08514); details: Schror & Weber 2003, read-out: affinity of eptifibatide to αIIbβ3 on resting platelets (kD); cited from earlier work
T2 construct: host or cells: resting platelets

[10] = FIG. 6D, M-tirofiban 1.5 μM, human platelets

T1 sequence (P08514 32-887 limits assumed): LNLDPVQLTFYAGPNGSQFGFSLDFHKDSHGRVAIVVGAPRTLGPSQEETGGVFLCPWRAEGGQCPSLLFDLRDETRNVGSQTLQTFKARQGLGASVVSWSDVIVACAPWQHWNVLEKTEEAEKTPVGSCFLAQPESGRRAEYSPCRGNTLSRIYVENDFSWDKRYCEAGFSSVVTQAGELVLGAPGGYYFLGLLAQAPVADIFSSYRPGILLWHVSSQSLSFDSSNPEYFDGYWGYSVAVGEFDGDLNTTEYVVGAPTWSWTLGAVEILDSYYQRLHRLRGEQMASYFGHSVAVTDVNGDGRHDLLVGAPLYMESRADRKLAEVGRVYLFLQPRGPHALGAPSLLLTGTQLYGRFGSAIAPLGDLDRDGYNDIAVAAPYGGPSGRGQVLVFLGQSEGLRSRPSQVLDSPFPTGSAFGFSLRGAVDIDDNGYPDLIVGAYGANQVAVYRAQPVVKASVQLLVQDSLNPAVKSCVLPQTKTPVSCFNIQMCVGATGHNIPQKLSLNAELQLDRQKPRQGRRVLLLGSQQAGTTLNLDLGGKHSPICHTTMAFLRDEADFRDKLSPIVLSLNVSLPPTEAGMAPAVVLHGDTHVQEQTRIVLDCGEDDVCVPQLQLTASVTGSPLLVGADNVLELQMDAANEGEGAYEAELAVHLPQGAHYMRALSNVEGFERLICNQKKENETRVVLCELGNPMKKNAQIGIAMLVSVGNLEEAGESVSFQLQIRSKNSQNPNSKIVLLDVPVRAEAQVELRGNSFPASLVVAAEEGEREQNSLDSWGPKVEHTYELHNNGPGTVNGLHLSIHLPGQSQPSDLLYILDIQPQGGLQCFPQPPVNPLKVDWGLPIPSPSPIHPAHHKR
T1 sequence (P08514 891-1039 partner limits assumed): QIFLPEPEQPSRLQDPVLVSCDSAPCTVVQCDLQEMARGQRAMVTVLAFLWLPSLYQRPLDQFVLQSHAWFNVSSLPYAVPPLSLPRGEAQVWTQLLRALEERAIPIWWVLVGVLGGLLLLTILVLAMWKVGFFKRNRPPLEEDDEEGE
T1 sequence (P05106 27-788): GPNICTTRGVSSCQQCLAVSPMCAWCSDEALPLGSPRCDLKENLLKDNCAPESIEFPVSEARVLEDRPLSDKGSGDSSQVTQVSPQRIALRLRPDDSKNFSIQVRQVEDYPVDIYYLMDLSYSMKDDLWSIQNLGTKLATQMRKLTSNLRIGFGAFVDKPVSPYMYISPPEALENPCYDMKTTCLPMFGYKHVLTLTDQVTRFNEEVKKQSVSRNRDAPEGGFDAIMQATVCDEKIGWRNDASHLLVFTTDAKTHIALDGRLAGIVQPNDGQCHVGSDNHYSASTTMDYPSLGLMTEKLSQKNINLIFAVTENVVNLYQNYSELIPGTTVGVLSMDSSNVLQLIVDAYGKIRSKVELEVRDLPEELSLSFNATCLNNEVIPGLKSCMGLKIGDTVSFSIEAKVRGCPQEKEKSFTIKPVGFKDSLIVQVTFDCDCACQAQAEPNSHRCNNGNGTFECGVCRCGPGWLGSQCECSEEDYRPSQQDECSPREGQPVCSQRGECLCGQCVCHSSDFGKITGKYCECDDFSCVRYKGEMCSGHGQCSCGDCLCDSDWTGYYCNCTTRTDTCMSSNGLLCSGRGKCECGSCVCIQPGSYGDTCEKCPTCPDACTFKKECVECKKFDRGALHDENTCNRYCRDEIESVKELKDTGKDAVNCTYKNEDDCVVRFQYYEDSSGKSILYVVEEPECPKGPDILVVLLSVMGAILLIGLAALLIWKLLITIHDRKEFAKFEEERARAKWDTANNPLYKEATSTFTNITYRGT
T2 sequence (P08514 32-887 limits assumed): as the sequence (P08514 32-887 limits assumed) above
T2 sequence (P08514 891-1039 partner limits assumed): as the sequence (P08514 891-1039 partner limits assumed) above
T2 sequence (P05106 27-788): as the sequence (P05106 27-788) above

| SMILES | effect on clot retraction induced by α-thrombin [1] | kinetics of thrombin-induced clot retraction [1] | binding affinity to inactive vs. active αIIbβ3 ([2]; FIGS. 6F-6G, 12C) | IC50 ([2]; active αIIbβ3, read-out: IC50, displacement of labeled Hr10 binding to mAb PT-25-activated αIIbβ3-K562) [nM] | IC50 ([2]; inactive αIIbβ3, read-out: IC50, displacement of labeled Hr10 binding to inactive αIIbβ3-K562) [nM] | IC50 ([3]; read-out: IC50, human platelet aggregation induced by ADP) [nM] | reduction in affinity of M-tirofiban vs. tirofiban ([3]; from fibrinogen displacement and platelet aggregation assays) [fold] | IC50 ([4]; FIG. 6B, mean±S.E., n=4 experiments, read-out: IC50, displacement of labeled fibrinogen bound to preactivated αIIbβ3-K562) [nM] | activating conformational changes in αIIbβ3 reported by AP5 binding ([5]; FIG. 4, human platelets in PRP, saturating amounts, absence or presence of 20 μM ADP) | effect on ADP-induced AP5 expression ([5]; FIG. 6D, M-tirofiban 1.5 μM, ADP 5 μM added before or after) | induction of AP5 epitope expression [5, 10] | kinetics of thrombin-induced clot retraction vs. buffer ([1]; FIGS. 12A-12B, fresh human PRP, 2-hour assay) | inhibition of ADP-induced ATP secretion from dense granules in whole blood [6] [%] | IC50 ([4]; FIG. 8C, preactivated αIIbβ3-K562, mean S.E., n=3, read-out: IC50, inhibition of binding of Alexa647-labeled soluble FB to activated αIIbβ3) [nM] | ADP-induced secretion from platelet α-granules (CD62P expression) and lysosomes (CD63 expression) [7] | nascent occlusive thrombus formation at sites of laser-induced arteriolar injury [8] | conformational changes in αIIbβ3 reported by binding of mAbs AP5 and LIBS-1 ([5]; FIG. 8D, 1.5 μM, human platelets, absence or presence of 5 μM ADP) | Kd [9] [nM] | IC50 ([3]; FIG. 6C, ADP 20 μM, mean±S.E., n=5, three donors, read-out: IC50, human platelet aggregation induced by ADP) [nM] | IC50 ([3]; summary of FIGS. 6B-6C, ADP 20 μM, read-out: Prevention of ADP-induced human platelet aggregation, concentration range) [nM] |
| --- | --- | --- | --- | --- | --- | --- | --- | --- | --- | --- | --- | --- | --- | --- | --- | --- | --- | --- | --- | --- |
| O=C(N[C@@H](Cc1ccc(OCCCCC2CCNCC2)cc1)C(=O)O)c1nc2ccccc2o1 [M-tirofiban, OC(═O)[C@H](CC1═CC═C(OCCCCC2CCNCC2)C═C1)NC(═O)C1═NC2═C(O1)C ═CC═C2] | reduced clot retraction minimally | did not; also recorded: not different between buffer control (contr.) and M-tirofiban | equivalent binding affinities to inactive and active | 247 ± 29.3 | 257 ± 88 | 18.5 ± 5.4 | ~10 | 30.9 ± 3.3 | did not induce the activating shape-shifts | suppressed ADP-induced AP5 expression | did not induce AP5 expression; also recorded: No significant differences were found between B and M | – | – | – | – | – | – | – | – | – |
| N=C(N)NCCCC[C@@H]1NC(=O)CCSSC[C@@H](C(N)=O)NC(=O)[C@@H]2CCCN2C(=O)[C@H](Cc2c[nH]c3ccccc23)NC(=O)[C@H](CC(=O)O)NC(=O)CNC1=O [eptifibatide] ([Mpa][hArg]GDWPC-NH2; disulfide 1-7) | – | – | – | – | – | – | – | – | – | – | – | clot retraction was significantly reduced vs buffer; also recorded: significantly blocked clot retraction | 60±200 | 73.2 ± 7 | did not significantly alter | completely preventing nascent occlusive thrombus formation | induced conformational changes in αIIbβ3 | 120 | – | – |
| CCCCS(=O)(=O)N[C@@H](Cc1ccc(OCCCCC2CCNCC2)cc1)C(=O)O [tirofiban] | completely blocked clot retraction | effectively blocked thrombin-induced clot retraction | – | – | – | – | – | – | – | – | induced expression of the AP5 epitope | – | – | – | – | – | – | – | 1.41 ± 0.23 | 1.5 to 2 |

Source: patent US11643393B2, “Integrin antagonists” (The General Hospital Corporation, priority 2018, dated 2023)
